From patent US20160287602A1, “METHODS FOR PROMOTING MOTOR NEURON SURVIVAL” (PRESIDENT AND FELLOWS OF HARVARD COLLEGE, priority 2013, published 2016)
Entries after “also recorded” stand apart in the source; their conditions may differ.

Tests used:
[1] = tested on: wild-type (Hb9::GFP) mouse ESC derived MNs; assay: MN survival after trophic factor withdrawal, mixed culture; type: cell-based
Text: In the present study, we have screened highly specific small molecule kinase inhibitors to identify those which could promote MN survival. For the screen, we generated MNs from wild-type (Hb9::GFP) and SOD1^G93A (SOD1^G93A/Hb9::GFP) mouse ESCs using published protocols (Di Giorgio et al., 2007). We withdrew trophic factors as a standard method to induce MN death. Cell plating density as well as timing for initiation and duration of trophic factor withdrawal were used exactly as published to achieve ˜80% MN death in 3 days (FIG. 1A) (Yang et al., 2013). […] We continued to work with this compound class as it reproducibly promoted survival of both MNs types and the effect was robust. We further reasoned that since this compound class promoted survival of both MN types, the probability of its working in other contexts such as on human MNs and in the ALS mouse model was maximum. […]
Trophic factors were removed and ZM447439 was added to the cultures as previously and MN survival was analyzed on day 7, 14 & 21.

Hb9::GFP MNs [2] = assay: MN morphology analysis of surviving MNs; type: cell-based, mouse; details: absence of trophic factors, extended time point
Text: (§1) To examine whether MNs kept alive by AKIs maintain morphological integrity we carried out a series of analyses on surviving MNs in the absence of trophic factors. […] We also used an automated imager to analyze the number of synapses per MN by counting co-localized regions positive for the presynaptic marker synapsin and the postsynaptic marker PSD-95.

SOD1^G93A/Hb9::GFP MNs [3] = assay: MN morphology analysis of surviving MNs; type: cell-based, mouse; details: absence of trophic factors, extended time point
Text: as §1

[4] = tested on: synaptophysin in Hb9::GFP MN cultures; assay: Synaptophysin immunoblotting; type: cell-based, mouse
[5] = tested on: synaptophysin in SOD1^G93A/Hb9::GFP MN cultures; assay: Synaptophysin immunoblotting; type: cell-based, mouse
Hb9::GFP MNs [6] = assay: MN survival in co-culture with primary WT or SOD1^G93A astrocytes; type: cell-based, mouse; details: Hb9::GFP MNs on WT or SOD1^G93A astrocytes
Procedure: (§2) We sought to examine whether AKIs decrease the toxic effect of SOD1^G93A mutant astrocytes. We first cultured primary astrocytes from wild type (WT) and SOD1^G93A mice and plated FACS purified MNs on top. We observed significant cell death when MNs were cultured on mutated astrocytes compared to WT astrocytes. ZM447439 improved both Hb9::GFP and SOD1^G93A/Hb9::GFP MN survival.

SOD1^G93A/Hb9::GFP MNs [7] = assay: as above; type: cell-based, mouse
Procedure: as §2

FACS purified MNs = assay: Area of MN cell bodies in astrocyte co-culture; type: cell-based, mouse
Procedure: as §2

Prkarlb = assay: Prkar1b immunostaining in surviving MNs; type: cell-based, mouse; details: absence of TFs
[8] = tested on: phosphorylated BAD (pBAD); assay: Phosphorylated BAD immunostaining in surviving MNs; type: cell-based, mouse; details: absence of TFs
MNs = assay: Lentivirus knockdown of Prkarlb, MN survival; type: cell-based, mouse
Text: (§3) Next we sought to investigate the mechanism by which AKIs promote MN survival. To evaluate this comprehensively we performed microarray analysis to compare gene expression between MNs cultured with: 1) Trophic factors (+TF), 2) No trophic factors (−TF), 3) VX-680 in the absence of TFs, and 4) ZM447439 in the absence of TFs. […] Gene expression was compared between +TF and −TF, VX-680 and −TF, and ZM447439 and −TF. With a cut off of more than 3 fold difference, there were 85 genes overlapping in all three comparison in Hb9::GFP MNs and 57 in SOD1^G93A/Hb9::GFP MNs. We found 39 overlapping genes when we compared both types of MNs (FIG. 5B). […] We analyzed the shortlist of 39 genes by using DAVID functional annotation bioinformatics microarray analysis software to find the potential pathways involved in MN survival. […] PKA is known to phosphorylate BAD protein, leading to increased cell survival (Jose M. LIZCANO et al., 2000; Julian Downward et al., Nature cell biology 1999; Komaki S et al., Neurosci Lett 2012). […] We further investigated this pathway by lentivirus knockdown of Prkarlb.

[9] = tested on: Hb9::GFP and SOD1^G93A/Hb9::GFP MNs; assay: Microarray analysis of gene expression in MNs; type: cell-based, mouse; details: compound in the absence of TFs versus -TF
Text: as §3

[10] = tested on: human ESC derived MNs on SOD1^G93A astrocytes; assay: Human ESC derived MNs co-cultured with astrocytes; type: cell-based
Text: We generated MNs from a human ESC line expressing an HB9::GFP transgene [HuES-3/Hb9::GFP (Di Giorgio et al., 2008)]. Human ESC derived MN cultures were pre-treated with AraC to eliminate progenitor cells. We induced MN death by again withdrawing trophic factors. […] We also investigated the toxic effect of SOD1^G93A astrocytes on human ESC derived MN survival. We found significant death of human MNs cultured on mutant astrocytes.

iPSC-derived MN lines [11] = assay: Morphology of iPSC-derived MNs; type: cell-based, human; details: all iPSC-derived MN lines, absence of trophic factor
Text: (§4) We produced MNs from human iPSCs lines including a healthy control, two ALS patients expressing confirmed mutations in SOD1 (Boulting et al., 2011), two with mutations in TDP-43 and one in C90RF72. We treated these cultures with AraC to minimize the number of proliferating progenitors. […] We also examined the effect of SOD 1^G93A astrocytes co-culture on iPSC derived MNs. We found no toxic effect on survival in any of the patient iPSC derived MNs, but we did observe decreased MN survival in the control iPSC derived MNs. […] We also looked at the effect of AKIs on morphology and synapse formation. […] In addition, by immunoblot we observed that ZM447439 enhanced synaptic protein, synaptophysin, expression in both the presence and absence of trophic factors.

iPSC-derived MN lines [12] = assay: Synapse formation of iPSC-derived MNs; type: cell-based, human; details: all iPSC-derived MN lines, absence of trophic factor
Text: as §4

synaptophysin = assay: Synaptophysin immunoblot, iPSC-derived MNs; type: cell-based, human; details: both the presence and absence of trophic factors
Text: as §4

COc1cc2c(Nc3ccc(NC(=O)c4ccccc4)cc3)ncnc2cc1OCCCN1CCOCC1 [ZM447439, N-[4-[[6-Methoxy-7-[3-(4-morpholinyl)propoxy]-4-quinazolinyl]amino]phenyl]benzamide]
survival effect in dose dependent assay, comparison among AKIs ([1]; mixed MN culture, FIG. 1B): most effective and potent in promoting MN survival; also recorded: most effective and potent of all AKIs assayed | survival of MNs (number of surviving MNs) ([1]; trophic factor withdrawal, 3 days, wild-type Hb9::GFP MNs): consistently increased the survival of MNs; also recorded: most potent and robust at increasing survival | long term MN survival ([1]; trophic factors removed, day 7, 14 & 21, Hb9::GFP MNs): increased survival | MN morphology (total neurite length, maximum neurite length, number of extremities and number of nodes per MN) (Hb9::GFP MNs [2]): preserved all of these features | MN morphology (total neurite length, maximum neurite length, number of extremities and number of nodes per MN) (SOD1^G93A/Hb9::GFP MNs [3]): preserved all of these features | expression of synaptic protein synaptophysin [4]: increased expression | expression of synaptic protein synaptophysin [5]: increased expression | MN survival in astrocyte co-culture (Hb9::GFP MNs [6]): improved | MN survival in astrocyte co-culture (SOD1^G93A/Hb9::GFP MNs [7]; SOD1^G93A/Hb9::GFP MN co-cultured with SOD1^G93A astrocytes): less of an increase in survival | MN survival in astrocyte co-culture (SOD1^G93A/Hb9::GFP MNs [7]; SOD1^G93A/Hb9::GFP MNs on WT or SOD1^G93A astrocytes): improved | area of MN cell bodies (FACS purified MNs): increased | levels of Prkarlb (Prkarlb): increased levels | levels of phosphorylated BAD (pBAD) [8]: increased levels | MN survival on knocking down Prkarlb in the presence of the compound (MNs): effectively decreased MN survival | expression of genes related to synapse formation (Syt1, Snap25 and Sv2c, Map2 and Dcx) [9]: upregulated | death of human MNs cultured on mutant astrocytes ([10]; SOD1^G93A astrocytes co-culture): completely rescued; also recorded: decreases the toxic effect | size of human MN ([10]; co-cultured with both wild-type and mutant astrocytes): significantly increased | morphology (iPSC-derived MN lines [11]): preserved both | synapse formation (iPSC-derived MN lines [12]): preserved both | synaptic protein synaptophysin expression (synaptophysin): enhanced
